# In PubChem BioAssay AID256 (DTP/NCI, 2004):
# Values joined by “and” are separate entries in the source; they are usually repeats but may differ in a detail not shown here. Identical values can stand only once. Inconclusive results and toxic doses are left out. Starred links: 1 amine or outer side, 2 acyl side, 3 side chain; linkers in the order of their positions; H or OH if unused. Positions of bridges follow the written chain, without caps; N, C: chain ends. Non-standard residues stand in square brackets, D forms with d. Residues, ends and D or L forms follow the SMILES beside them. Chains are numbered I, II in the order given. Actinocin(1to9) = Cc1c2oc3c(C)ccc(C(=O)[*:2])c3nc-2c(C(=O)[*:1])c(N)c1=O; NMeV = CN[CH](C(=O)O)C(C)C; Aze = O=C(O)[CH]1CCN1; Sar = CNCC(=O)O
# Test system: CD2F1 mice, L1210 leukemia ip, survival T/C
# Experiment: NCI In Vivo Anticancer Drug Screen. Data for tumor model L1210 Leukemia (intraperitoneal) in CD2F1 (CDF1) mice
# Details: higher = longer survival
# Method in brief: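 In this screen, transplantable tumors were grown in mice given either the compound or its vehicle. Results were expressed as the treated measurement relative to the control measurement.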
# [1] = endpoint: mean survival time, dose: 150.0 mg/kg/injection, schedule: Q01DX009 (ip), vehicle: saline
# [2] = endpoint: mean survival time, dose: 100.0 mg/kg/injection, schedule: Q04DX002 (ip), vehicle: saline with Tween-80
# [3] = endpoint: mean survival time, dose: 200.0 mg/kg/injection, schedule: Q04DX002 (ip), vehicle: saline with Tween-80
# [4] = endpoint: mean survival time, dose: 100.0 mg/kg/injection, schedule: Q01DX009 (ip), vehicle: saline with Tween-80
# [5] = endpoint: mean survival time, dose: 200.0 mg/kg/injection, schedule: Q01DX009 (ip), vehicle: saline with Tween-80
# [6] = endpoint: mean survival time, dose: 50.0 mg/kg/injection, schedule: Q01DX009 (ip), vehicle: saline with Tween-80
# [7] = endpoint: mean survival time, dose: 100.0 mg/kg/injection, schedule: Q04DX003 (ip), vehicle: saline with Tween-80
# [8] = endpoint: mean survival time, dose: 200.0 mg/kg/injection, schedule: Q04DX003 (ip), vehicle: saline with Tween-80
# [9] = endpoint: mean survival time, dose: 400.0 mg/kg/injection, schedule: Q04DX003 (ip), vehicle: saline with Tween-80
# [10] = endpoint: mean survival time, dose: 100.0 mg/kg/injection, schedule: Q01DX009 (ip), vehicle: saline
# [11] = endpoint: mean survival time, dose: 200.0 mg/kg/injection, schedule: Q01DX009 (ip), vehicle: saline
compound,measurement,setting,value
NCCSC1(O)C(=O)c2ccccc2C1=O,T/C,"endpoint: mean survival time, dose: 37.5 mg/kg/injection, schedule: Q01DX009 (ip), vehicle: saline",109 % of control
same,T/C,"endpoint: mean survival time, dose: 75.0 mg/kg/injection, schedule: Q01DX009 (ip), vehicle: saline",109 % of control
same,T/C,[1],89 % of control
O=[n+]1ccn([O-])c2ccccc21,T/C,[2],111 % of control
same,T/C,[3],105 % of control
CSc1cccnn1,T/C,"endpoint: mean survival time, dose: 100.0 mg/kg/injection, schedule: Q04DX003 (ip), vehicle: saline",93 % of control
same,T/C,"endpoint: mean survival time, dose: 200.0 mg/kg/injection, schedule: Q04DX003 (ip), vehicle: saline",98 % of control
same,T/C,"endpoint: mean survival time, dose: 400.0 mg/kg/injection, schedule: Q04DX003 (ip), vehicle: saline",95 % of control
"Cc1c2oc3c(C)ccc(C(=O)NC4C(=O)NC(C(C)C)C(=O)N5CCCC5C(=O)N(C)CC(=O)N(C)C(C(C)C)C(=O)OC4C)c3nc-2c(C(=O)NC2C(=O)NC(C(C)C)C(=O)N3CCC3C(=O)N(C)CC(=O)N(C)C(C(C)C)C(=O)OC2C)c(N)c1=O (centres undefined) (I: TV[Aze][Sar][NMeV] / II: TVP[Sar][NMeV]; ester I:1-I:C, II:1-II:C; linker I:N-II:N via Actinocin(1to9); configuration not given here)",T/C,"endpoint: mean survival time, dose: 37.0 micrograms/kg/injection, schedule: Q01DX009 (ip), vehicle: saline + alcohol",103 % of control
same,T/C,"endpoint: mean survival time, dose: 75.0 micrograms/kg/injection, schedule: Q01DX009 (ip), vehicle: saline + alcohol",117 % of control
same,T/C,"endpoint: mean survival time, dose: 300.0 micrograms/kg/injection, schedule: Q01DX009 (ip), vehicle: saline + alcohol",151 % of control
same,T/C,"endpoint: mean survival time, dose: 600.0 micrograms/kg/injection, schedule: Q01DX009 (ip), vehicle: saline + alcohol",109 % of control
same,T/C,"endpoint: median survival time, dose: 12.5 micrograms/kg/injection, schedule: Q01DX009 (ip), vehicle: saline",108 % of control
same,T/C,"endpoint: median survival time, dose: 25.0 micrograms/kg/injection, schedule: Q01DX009 (ip), vehicle: saline",115 % of control
same,T/C,"endpoint: median survival time, dose: 50.0 micrograms/kg/injection, schedule: Q01DX009 (ip), vehicle: saline",115 % of control
same,T/C,"endpoint: median survival time, dose: 100.0 micrograms/kg/injection, schedule: Q01DX009 (ip), vehicle: saline",123 % of control
same,T/C,"endpoint: median survival time, dose: 200.0 micrograms/kg/injection, schedule: Q01DX009 (ip), vehicle: saline",150 % of control
same,T/C,"endpoint: median survival time, dose: 400.0 micrograms/kg/injection, schedule: Q01DX009 (ip), vehicle: saline",91 % of control
Cc1ccc(C(C)C)c(OCCN)c1,T/C,"endpoint: mean survival time, dose: 25.0 mg/kg/injection, schedule: Q04DX002 (ip), vehicle: saline",94 % of control
same,T/C,"endpoint: mean survival time, dose: 50.0 mg/kg/injection, schedule: Q04DX002 (ip), vehicle: saline",97 % of control
same,T/C,"endpoint: mean survival time, dose: 100.0 mg/kg/injection, schedule: Q04DX002 (ip), vehicle: saline",93 % of control and 97 % of control
CC12CCCCC1=CC(=O)CC2 (centres undefined),T/C,[4],97 % of control
same,T/C,[2],96 % of control
same,T/C,[5],102 % of control
same,T/C,[3],112 % of control
same,T/C,"endpoint: mean survival time, dose: 400.0 mg/kg/injection, schedule: Q04DX002 (ip), vehicle: saline with Tween-80",104 % of control
CCCC/C=C/C(C)O (centres undefined),T/C,[6],100 % of control
same,T/C,[4],100 % of control
same,T/C,[7],98 % of control
same,T/C,[5],95 % of control
same,T/C,[8],103 % of control
same,T/C,[9],103 % of control
Cc1nccc(N)n1,T/C,"endpoint: mean survival time, dose: 100.0 mg/kg/injection, schedule: Q01DX001 (ip), vehicle: saline with Tween-80",89 % of control
same,T/C,"endpoint: mean survival time, dose: 200.0 mg/kg/injection, schedule: Q01DX001 (ip), vehicle: saline with Tween-80",90 % of control
same,T/C,"endpoint: mean survival time, dose: 400.0 mg/kg/injection, schedule: Q01DX001 (ip), vehicle: saline with Tween-80",90 % of control
c1ccc2c(NCCCCCCNc3c4ccccc4nc4ccccc34)c3ccccc3nc2c1,T/C,"endpoint: mean survival time, dose: 0.62 mg/kg/injection, schedule: Q01DX009 (ip), vehicle: Klucel (hydroxypropylcellulose) (HPC)",103 % of control
same,T/C,"endpoint: mean survival time, dose: 1.25 mg/kg/injection, schedule: Q01DX009 (ip), vehicle: Klucel (hydroxypropylcellulose) (HPC)",114 % of control and 123 % of control and 111 % of control
same,T/C,"endpoint: mean survival time, dose: 2.5 mg/kg/injection, schedule: Q01DX009 (ip), vehicle: Klucel (hydroxypropylcellulose) (HPC)",115 % of control and 109 % of control
same,T/C,"endpoint: mean survival time, dose: 5.0 mg/kg/injection, schedule: Q01DX009 (ip), vehicle: Klucel (hydroxypropylcellulose) (HPC)",123 % of control and 111 % of control
same,T/C,"endpoint: mean survival time, dose: 10.0 mg/kg/injection, schedule: Q01DX009 (ip), vehicle: Klucel (hydroxypropylcellulose) (HPC)",111 % of control
same,T/C,"endpoint: mean survival time, dose: 20.0 mg/kg/injection, schedule: Q01DX009 (ip), vehicle: Klucel (hydroxypropylcellulose) (HPC)",104 % of control
CC(Cl)CN(CC(C)Cl)c1ccc2c(c1)Cc1cc(F)ccc1-2 (centres undefined),T/C,[7],98 % of control
same,T/C,[8],96 % of control
same,T/C,[9],100 % of control
C=C(C)C(=O)O[C@H]1[C@H]2[C@H](OC(=O)[C@H]2C)[C@H](O)[C@@H](C)[C@@H]2C=CC(=O)[C@]21C,T/C,"endpoint: mean survival time, dose: 3.13 mg/kg/injection, schedule: Q01DX009 (ip), vehicle: saline",91 % of control
same,T/C,"endpoint: mean survival time, dose: 6.25 mg/kg/injection, schedule: Q01DX009 (ip), vehicle: saline",95 % of control
same,T/C,"endpoint: mean survival time, dose: 7.5 mg/kg/injection, schedule: Q01DX009 (ip), vehicle: saline",102 % of control
same,T/C,"endpoint: mean survival time, dose: 12.5 mg/kg/injection, schedule: Q01DX009 (ip), vehicle: saline",93 % of control
same,T/C,"endpoint: mean survival time, dose: 15.0 mg/kg/injection, schedule: Q01DX009 (ip), vehicle: saline",103 % of control
same,T/C,"endpoint: mean survival time, dose: 25.0 mg/kg/injection, schedule: Q01DX009 (ip), vehicle: saline",108 % of control
same,T/C,"endpoint: mean survival time, dose: 30.0 mg/kg/injection, schedule: Q01DX009 (ip), vehicle: saline",102 % of control
CC(c1ccc([N+](=O)[O-])cc1)C(O)c1ccccc1 (centres undefined),T/C,[7],111 % of control
same,T/C,[8],103 % of control
same,T/C,[9],102 % of control
C/C=C1/C=CC2c3[nH]c4ccccc4c3CCN2C1 (centres undefined),T/C,"endpoint: mean survival time, dose: 20.0 mg/kg/injection, schedule: Q01DX001 (ip), vehicle: saline with Tween-80",93 % of control
same,T/C,"endpoint: mean survival time, dose: 40.0 mg/kg/injection, schedule: Q01DX001 (ip), vehicle: saline with Tween-80",98 % of control
same,T/C,"endpoint: mean survival time, dose: 80.0 mg/kg/injection, schedule: Q01DX001 (ip), vehicle: saline with Tween-80",90 % of control
CCC(C)(O)Cc1cnccn1 (centres undefined),T/C,[10],108 % of control
same,T/C,[11],97 % of control
same,T/C,"endpoint: mean survival time, dose: 400.0 mg/kg/injection, schedule: Q01DX009 (ip), vehicle: saline",96 % of control
CN(C)c1ccc(/C=C\C(=O)c2ccccc2)cc1,T/C,"endpoint: mean survival time, dose: 50.0 mg/kg/injection, schedule: Q01DX009 (ip), vehicle: saline",109 % of control
same,T/C,[10],97 % of control
same,T/C,[11],106 % of control
CS(=O)(=O)OCCN(CCOS(C)(=O)=O)c1cccc(Cl)c1,T/C,"endpoint: mean survival time, dose: 2.0 mg/kg/injection, schedule: Q01DX010 (ip), vehicle: saline",112 % of control
same,T/C,"endpoint: mean survival time, dose: 4.0 mg/kg/injection, schedule: Q01DX010 (ip), vehicle: saline",112 % of control
same,T/C,"endpoint: mean survival time, dose: 4.0 mg/kg/injection, schedule: Q01DX015 (ip), vehicle: saline",116 % of control
same,T/C,"endpoint: mean survival time, dose: 8.0 mg/kg/injection, schedule: Q01DX010 (ip), vehicle: saline",150 % of control
same,T/C,"endpoint: mean survival time, dose: 8.0 mg/kg/injection, schedule: Q01DX015 (ip), vehicle: saline",119 % of control
Nc1nc(F)nc2c1ncn2C1OC(COC=O)C(OC=O)C1O (centres undefined) (tested in a mixture with another compound),T/C,[10],205 % of control
same,T/C,"endpoint: mean survival time, dose: 125.0 mg/kg/injection, schedule: Q01DX009 (ip), vehicle: saline",243 % of control and 419 % of control
same,T/C,"endpoint: mean survival time, dose: 150.0 mg/kg/injection, schedule: Q01DX009 (ip), vehicle: saline with Tween-80",512 % of control
same,T/C,[1],288 % of control and 370 % of control
same,T/C,"endpoint: mean survival time, dose: 175.0 mg/kg/injection, schedule: Q01DX005 (ip), vehicle: saline with Tween-80",163 % of control
same,T/C,"endpoint: mean survival time, dose: 175.0 mg/kg/injection, schedule: Q01DX009 (ip), vehicle: saline with Tween-80",551 % of control
same,T/C,"endpoint: mean survival time, dose: 175.0 mg/kg/injection, schedule: Q01DX009 (ip), vehicle: saline",318 % of control
same,T/C,"endpoint: mean survival time, dose: 200.0 mg/kg/injection, schedule: Q01DX005 (ip), vehicle: saline with Tween-80",179 % of control
same,T/C,[5],298 % of control
same,T/C,"endpoint: mean survival time, dose: 250.0 mg/kg/injection, schedule: Q01DX009 (ip), vehicle: saline with Tween-80",189 % of control
CC(=O)OCC#CCOC(C)=O,T/C,[6],93 % of control
CCCCCCCCCCCCCCCCn1cnc2c(Cl)ncnc21,T/C,"endpoint: mean survival time, dose: 12.5 mg/kg/injection, schedule: Q01DX005 (ip), vehicle: other",94 % of control
same,T/C,"endpoint: mean survival time, dose: 25.0 mg/kg/injection, schedule: Q01DX005 (ip), vehicle: other",91 % of control
same,T/C,"endpoint: mean survival time, dose: 50.0 mg/kg/injection, schedule: Q01DX005 (ip), vehicle: other",91 % of control
same,T/C,"endpoint: mean survival time, dose: 100.0 mg/kg/injection, schedule: Q01DX005 (ip), vehicle: other",92 % of control
same,T/C,"endpoint: mean survival time, dose: 200.0 mg/kg/injection, schedule: Q01DX005 (ip), vehicle: other",89 % of control
